Test results published in patent US9765358B2 (priority 2015, dated 2017).

Tests used:
Clostridium beijerinckii = assay type: cell-based
Lactobacillus plantarum = assay type: cell-based

Row | Molecule | antibiotic susceptibility (disc, zone of clearance) (Clostridium beijerinckii) | antibiotic susceptibility (disc, zone of clearance) (Lactobacillus plantarum)
1 | CC[C@H]1OC(=O)[C@H](C)[C@@H](O[C@H]2C[C@@](C)(OC)[C@@H](O)[C@H](C)O2)[C@H](C)[C@@H](O[C@@H]2O[C@H](C)C[C@H](N(C)C)[C@H]2O)[C@](C)(O)C[C@@H](C)CN(C)[C@H](C)[C@@H](O)[C@]1(C)O [azithromycin] | susceptible | susceptible
2 | CC1(C)S[C@@H]2[C@H](NC(=O)C(C(=O)O)c3ccccc3)C(=O)N2[C@H]1C(=O)O (stereo partly drawn) [carbenicillin] | susceptible | resistant
3 | Cc1ncc([N+](=O)[O-])n1CCO [metronidazole] | susceptible | resistance
4 | CN[C@H](CC(C)C)C(=O)N[C@H]1C(=O)N[C@@H](CC(N)=O)C(=O)N[C@H]2C(=O)N[C@H]3C(=O)N[C@H](C(=O)N[C@H](C(=O)O)c4cc(O)cc(O)c4-c4cc3ccc4O)[C@H](O)c3ccc(c(Cl)c3)Oc3cc2cc(c3O[C@@H]2O[C@H](CO)[C@@H](O)[C@H](O)[C@H]2O[C@H]2C[C@](C)(N)[C@H](O)[C@H](C)O2)Oc2ccc(cc2Cl)[C@H]1O [vancomycin] | susceptible | 
5 | amoxicillin/clavulinic acid | susceptible | resistant
